Like-named read-outs stand apart in the source and are kept apart here.
Experiments:
NS3/4A protease gt 1b = NS3/4A protease gt 1b (Hepatitis C virus genotype 1b, UniProt P26663); assay: HCV NS3 protease time-resolved fluorescence (TRF) assay, NS3/4A inhibitory activity (Ki), gt 1b; type: biochemical; settings: NS3/4A enzyme
Procedure: (§1) The HCV NS3 protease inhibitory activity of the present compounds may be tested using assays known in the art. One such assay is HCV NS3 protease time-resolved fluorescence (TRF) assay as described below and in WO 2006/102087. Other examples of such assays are described in, for example, WO 2005/046712. HCV NS3 protease inhibitors, such as those described herein have a Ki less than 50 μM, such as less than 10 μM, and less than 100 nM. Ki is determined by an NS3 protease assay. The assay is performed in a final volume of 100 μl in assay buffer containing 50 mM HEPES, pH 7.5, 150 mM NaCl, 15% glycerol, 0.15% TRITON X-100, 10 mM DTT, and 0.1% PEG 8000. NS3 protease is preincubated with various concentrations of inhibitors in DMSO for 30 minutes. The reaction is initiated by adding the TRF peptide substrate (final concentration 100 nM). NS3 mediated hydrolysis of the substrate is quenched after 1 hour at room temperature with 100 μl of 500 mM MES, pH 5.5. Product fluorescence is detected using either a VICTOR V2 or FUSION fluorophotometer (PERKIN ELMER LIFE AND ANALYTICAL SCIENCES) with excitation at 340 nm and emission at 615 nm with a 400 μs delay. Testing concentrations of different enzyme forms are selected to result in a signal to background ratio (SIB) of 10-30. IC50 values are derived using a standard four-parameter fit to the data. Ki values are derived from IC50 values using the following formula, IC50=Ki(1+[S]/KM), Eqn (1), where [S] is the concentration of substrate peptide in the reaction and KM is the Michaelis constant. See Paola Gallinari et al., Modulation of Hepatitis C Virus NS3 Protease and Helicase Activities through the Interaction with NS4A, 38 BIOCHEM. 5620 (1999); Paola Gallinari et al., Multiple Enzymatic Activities Associated with Recombinant NS3 Protein of Hepatitis C Virus, 72(8) J. VIROLOGY 6758 (1998); Mariana Taliani et al., A Continuous Assay of Hepatitis C Virus Protease Based on Resonance Energy Transfer Depsipeptide Substrates, 240 ANAL. BIOCHEM. 60 (1996).
(§2) This NS3 protease assay was performed in a final volume of 100 μl assay buffer containing 50 mM HEPES, pH 7.5, 150 mM NaCl, 15% glycerol, 0.15% TRITON X-100, 10 mM DTT, and 0.1% PEG 8000. NS3/4A protease was pre-incubated with various concentrations of inhibitors in DMSO for 30 minutes. The reaction was initiated by adding the TRF peptide substrate (final concentration 100 nM). NS3 mediated hydrolysis of the substrate was quenched after 1 hour at RT with 100 μl of 500 mM MES, pH 5.5. Product fluorescence was detected using either a V1CTOR V2 or FUSION fluorophotometer (PERKIN ELMER LIFE AND ANALYTICAL SCIENCES) with excitation at 340 nm and emission at 615 nm with a 400 us delay. Testing concentrations of different enzyme forms were selected to result in a signal to background ratio (SIB) of 10-30. IC50 values were derived using a standard four-parameter fit to the data. K, values are derived from IC50 values using the following formula, IC50=Ki(1+[S]/KM), Eqn (1), where [S] is the concentration of substrate peptide in the reaction and KM is the Michaelis constant. See Paola Gallinari et al., Modulation of Hepatitis C Virus NS3 Protease and Helicase Activities through the Interaction with NS4A, 38 BIOCHEM. 5620 (1999); Paola Gallinari et al., Multiple Enzymatic Activities Associated with Recombinant NS3 Protein of Hepatitis C Virus, 72(8) J. VIROLOGY 6758 (1998); Mariana Milani et al., A Continuous Assay of Hepatitis C Virus Protease Based on Resonance Energy Transfer Depsipeptide Substrates, 240 ANAL. BIOCHEM. 60 (1996); Shi-Shan Mao et al., A time-resolved, internally quenched fluorescence assay to characterize inhibition of hepatitis C virus nonstructural protein 3-4A protease at low enzyme concentrations, 373 ANALYTICAL BIOCHEMISTRY 1 (2008). Measuring Compound Inhibitory Potency (Replicon EC50 (nM))

[1] = molecular target: NS3/4A protease gt 1b A156V (Hepatitis C virus genotype 1b, UniProt P26663, A1182V); assay: HCV NS3 protease time-resolved fluorescence (TRF) assay, NS3/4A inhibitory activity (Ki), gt 1b A156V; type: biochemical
Procedure: as §1, §2

NS3/4A protease gt 3a = NS3/4A protease gt 3a (Hepatitis C virus genotype 3a, UniProt Q81258); assay: HCV NS3 protease time-resolved fluorescence (TRF) assay, NS3/4A inhibitory activity (Ki), gt 3a; type: biochemical; settings: NS3/4A enzyme
Procedure: as §1, §2

HCV gt 1b replicon = assay: HCV replicon assay, compound inhibitory potency (Replicon EC50); type: cell-based; settings: Hepatitis C virus, GT1B
Procedure: Measurement of inhibition by compounds was performed using the HCV replicon system. Several different replicons encoding different HCV genotypes or mutations were used. In addition, potency measurements were made using different formats of the replicon assay, including different ways of measurements and different plating formats. See Jan M. Vrolijk et al., A replicon-based bioassay for the measurement of interferons in patients with chronic hepatitis C, 110 J. VIROLOGICAL METHODS 201 (2003); Steven S. Carroll et al., Inhibition of Hepatitis C Virus RNA Replication by 2′-Modified Nucleoside Analogs, 278(14) J. BIOLOGICAL CHEMISTRY 11979 (2003). However, the underlying principles are common to all of these determinations, and are outlined below.
Stable neomycin phosphotransferase encoding replicon-harboring cell lines were used, so all cell lines were maintained under G418 selection prior to the assay. In some cases the cell lines encoded a luciferase:NEO FUSION and could be assayed either directly by determination of RNA copy number, or indirectly through measurement of the luciferase activity.
To initiate an assay, replicon cells were plated in the presence of a dilution series of test compound in the absence of G418. Typically, the assays were performed in a 96-well plate format for manual operation, or a 384-well plate in an automated assay. Replicon cells and compound were incubated for 24 to 48 hours, depending on the assay. At the end of the assay, cells are washed free of media and compound and then lysed. For direct quantitation, RNA levels were measured by 32P-probe hybridization and protection, or in a TAQMAN-based assay and normalized to cellular cyclophilin A RNA levels. In some cases, luciferase activity was measured using a conventional luciferase assay. In all cases, EC50 determinations were calculated as a percent of a DMSO control by fitting the data to a four-parameter fit function.

[2] = Plasma and liver concentrations and pharmacokinetics (Rat PK); type: in vivo; parameters: Rat PK 5 mpk AUC: unit not given here; settings: for concentration at 4 h: 5 mg/kg, 5 mpk, liver concentration at 4 h; for Rat PK 5 mpk AUC: area under the plasma concentration/time curve
Procedure: Test compounds were dissolved in a suitable dosing vehicle for i.v. administration (e.g., 20%:60%:20% DMSO:PEG400:H2O) or per oral administration (e.g., 10% POLYSORBATE80:90% H2O or 100% PEG400). Animals were administered (n=2 or 3) using a crossover study design for non-rodents. Plasma samples were collected at time points between 2 minutes and 24 hours, and compound levels were determined by RP-LC/MS/MS. Liver samples were collected post-mortem in rat. Liver samples were weighed, homogenized, and diluted using techniques known to those skilled in the art, and compound levels were determined by RP-LC/MS/MS.
Pharmacokinetic parameters were calculated based on non-compartmental analysis (e.g., using WATSON, WINNOLIN). Predose concentrations that were below the limit of quantitation (BLQ) were assigned a value of 0, Standard pharmacokinetic parameters CLp, Vdss, half-life (only for IV), % F, Cmax, Tmax, AUC0-last, AUC0-infinity were calculated. AUC values were calculated using linear trapezoidal method for ascending concentrations and the log trapezoidal method for descending concentrations.

[3] = 10% fetal bovine serum, read-out: gt 1b Replicon EC50 10% FBS
[4] = 50% normal human serum, read-out: gt 1b Replicon EC50 50% NHS

Row | Structure (SMILES) | Ki (NS3/4A protease gt 1b) [nM] | Ki [1] [nM] | Ki (NS3/4A protease gt 3a) [nM] | EC50 (HCV gt 1b replicon; [3]) [nM] | EC50 (HCV gt 1b replicon; [4]) [nM] | concentration at 4 h [2] [µM] | Rat PK 5 mpk AUC [2]
1 | COc1ccc2nc3c(nc2c1)O[C@@H]1C[C@H]2C(=O)N[C@]4(C(=O)NS(=O)(=O)C5(C)CC5)C[C@H]4/C=C\CCCCC[C@H](NC(=O)O[C@]4(C)C[C@H]4CCCCC3)C(=O)N2C1 [Example 6, (3R,20R,22R,26S,32Z,34S,36R,39S)-9-Methoxyl-22-methyl-N-[(1-methylcyclopropyl)sulfonyl]-24,38,40-trioxo-4,23-dioxa-1,6,13,25,37-pentaazaheptacyclo[24.13.1.1^3,39.0^5,14.0^7,12.0^20,22.0^34,36]hentetraconta-5,7,9,11,13,32-hexaene-36-carboxamide] | 0.03 | 0.6 | 0.32 | 1 | 4 | 24 | 0.16
2 | C[C@@]12C[C@H]1CCCCCc1nc3ccccc3nc1O[C@@H]1C[C@H]3C(=O)N[C@]4(C(=O)NS(=O)(=O)C5CC5)C[C@H]4/C=C\CCCCC[C@H](NC(=O)O2)C(=O)N3C1 [Example 10, (3R,20R,22R,26S,32Z,34S,36R,39S)—N-(Cyclopropylsulfonyl)-22-methyl-24,38,40-trioxo-4,23-dioxa-1,6,13,25,37-pentaazaheptacyclo[24.13.1.1^3,39.0^5,14.0^7,12.0^20,22.0^34,36]hentetraconta-5,7,9,11,13,32-hexaene-36-carboxamide] | 0.02 | 0.6 | 0.35 | 1 | 5 | 15 | 0.6
3 | COc1ccc2nc3c(nc2c1)O[C@@H]1C[C@H]2C(=O)N[C@]4(C(=O)NS(=O)(=O)C5CC5)C[C@H]4/C=C\CCCCC[C@H](NC(=O)O[C@@H]4CCC[C@H]4CCCCC3)C(=O)N2C1 [Example 1, (3R,20R,24R,28S,34Z,36S,38R,41S)—N-(Cyclopropylsulfonyl)-9-methoxy-26,40,42-trioxo-4,25-dioxa-1,6,13,27,39-pentaazaheptacyclo[26.13.1.1^3,41.0^5,14.0^7,12.0^20,24,0^36,38]tritetraconta-5,7,9,11,13,34-hexaene-38-carboxamide] | 0.16 | 1.6 | 0.45 | 2 | 9 | 3.6 | 0
4 | COc1ccc2nc3c(nc2c1)O[C@@H]1C[C@H]2C(=O)N[C@]4(C(=O)NS(=O)(=O)C5(C)CC5)C[C@H]4/C=C\CCCCC[C@H](NC(=O)O[C@@H]4C[C@H]4CCCCC3)C(=O)N2C1 [Example 4, (3R,20R,22R,26S,32Z,34S,36R,39S)-9-Methoxy-N-[(1-methylcyclopropyl)sulfonyl]-24,38,40-trioxo-4,23-dioxa-1,6,13,25,37-pentaazaheptacyclo[24.13.1.1^3,39.0^5,14.0^7,12.0^20,22.0^34,36]hentetraconta-5,7,9,11,13,32-hexaene-36-carboxamide] | 0.04 | 0.6 | 0.27 | 2 | 4 | 19 | 0.1
5 | O=C1N[C@H]2CCCCC/C=C\[C@@H]3C[C@@]3(C(=O)NS(=O)(=O)C3CC3)NC(=O)[C@@H]3C[C@H](CN3C2=O)Oc2nc3ccccc3nc2CCCCC[C@@H]2C[C@H]2O1 [Example 8, (3R,20R,22R,26S,32Z,34S,36R,39S)—N-(Cyclopropylsulfonyl)-24,38,40-trioxo-4,23-dioxa-1,6,13,25,37-pentaazaheptacyclo[24.13.1.1^3,39.0^5,14.0^7,12.0^20,22.0^34,36]hentetraconta-5,7,9,11,13,32-hexaene-36-carboxamide] | 0.02 | 0.9 | 0.49 | 1 | 13 | 7 | 0.06
6 | COc1ccc2nc3c(nc2c1)O[C@@H]1C[C@H]2C(=O)N[C@]4(C(=O)NS(=O)(=O)C5CC5)C[C@H]4/C=C\CCCCC[C@H](NC(=O)O[C@@H]4C[C@H]4CCCCC3)C(=O)N2C1 [Example 3, (3R,20R,22R,26S,32Z,34S,36R,39S)—N-(Cyclopropylsulfonyl)-9-methoxy-24,38,40-trioxo-4,23-dioxa-1,6,13,25,37-pentaazaheptacyclo[24.13.1.1^3,39.0^5,14.0^7,12.0^20,22.0^34,36]hentetraconta-5,7,9,11,13,32-hexaene-36-carboxamide] | 0.02 | 0.8 | 0.24 | 2 | 8 | 13 | 0.19

Source: US8828930B2, “Hepatitis C virus NS3 protease inhibitors” (Merck Sharp & Dohme Corp., priority 2009, dated 2014)
